Test system: 60 cancer cell lines (NCI 60 cancer cell line series)
Test: NCI-DTP in vitro cancer screen, sulforhodamine B (SRB) growth inhibition, 48 hour exposure
Type: cell-based, human
Procedure: Cancer Cell Line Preparation. Sixty cancer cell lines were obtained from the National Cancer Institute Developmental Therapeutics Program (NCI-DTP). Procedures for growing cells and testing compounds have been described previously (Scudiero et al., Cancer Res. 1988, 48:4827-4833; Stinson et al., Anticancer Res.; Myers et al., Electrophoresis 1997, 18:647-653). Cells are plated on day 0 at a density individualized for each cell line so that they will generally be sub-confluent at the end of the assay period. On day 1, a compound is added in the format for a duplicate-well, 5-dose, ten-fold interval dose response study.
No-drug, no-cell and no-growth controls are included. On day 3 the cells are processed for staining with sulforhodamine B (SRB), which reflects the amount of cell mass present at the end of a 48 hour exposure to the test agent. From dose response curves based on the SRB data, various parameters can be determined. […] More precisely, the quantity used in the calculation to be described is the potency measure −log{GI50}.
Activity database (A). […] This subset of compounds was selected from the larger 23,000 compound database available from the DTP. The compounds were selected on the basis of their known mechanism of action and chemical structure. The average potency −log{GI50} was extracted from the comma-delimited text files available through the Web at http://www.nci.nih.gov/intra/lmp/jnwbio.html. Subsequently, these −log{GI50} values were inspected manually and classified as indicating either Low, Medium or High sensitivity to each compound.

With NC(=O)NO [Hydroxyurea] the “classification of cell line as Low(1), Medium(2), High(3) sensitivity to compound” value (from here on “classification of cell line”) (Breast BT-549 CL5013) was 1, the “classification of cell line” value (Breast HS-578T CL5006) was 2 and the “classification of cell line” value (Breast MCF7(I) CL5001) was 2. For the same compound, the “classification of cell line” value (Breast MCF7/ADRr CL5002) was 2, the “classification of cell line” value (Breast MDA-MB-231 CL5005) was 1 and the “classification of cell line” value (Breast MDA-MB-435 CL5011) was 1. For the same compound, the “classification of cell line” value (Breast MDA-N CL5012) was 1, the “classification of cell line” value (Breast T-47D CL5014) was 1 and the “classification of cell line” value (CNS SF-268 CL12014) was 2. The “classification of cell line” value (CNS SF-295 CL12015) was 3, the “classification of cell line” value (CNS SF-539 CL12016) was 3 and the “classification of cell line” value (CNS SNB-19 CL12002) was 1. The “classification of cell line” value (CNS SNB-75(I) CL12005) was 2, the “classification of cell line” value (CNS U251(I) CL12009) was 2 and the “classification of cell line” value (Colon COLO-250 CL4010) was 1. For the same compound, the “classification of cell line” value (Colon HCC-2998 CL4002) was 2, the “classification of cell line” value (Colon HCT-15 CL4015) was 2 and the “classification of cell line” value (Colon HCT-116 CL4003) was 2. For the same compound, the “classification of cell line” value (Colon HT29(I) CL4001) was 2, the “classification of cell line” value (Colon KM12 CL4017) was 2 and the “classification of cell line” value (Colon SW-620 CL4009) was 2. For the same compound, the “classification of cell line” value (Leukemia CCRF-CEM(I) CL7003) was 3, the “classification of cell line” value (Leukemia HL-60(I) CL7008) was 3 and the “classification of cell line” value (Leukemia K562(I) CL7005) was 2. The “classification of cell line” value (Leukemia MOLT-4 CL7006) was 3, the “classification of cell line” value (Leukemia RPMI-8226(I) CL7010) was 3 and the “classification of cell line” value (Leukemia SR CL7019) was 3. The “classification of cell line” value (Melanoma LOX IMVI CL10001) was 2, the “classification of cell line” value (Melanoma M14 CL10014) was 2 and the “classification of cell line” value (Melanoma MALME-3M CL10002) was 2. For the same compound, the “classification of cell line” value (Melanoma SK-MEL-2 CL10005) was 1, the “classification of cell line” value (Melanoma SK-MEL-5 CL10007) was 2 and the “classification of cell line” value (Melanoma SK-MEL-28 CL10008) was 1. The “classification of cell line” value (Melanoma UACC-62 CL10020) was 3, the “classification of cell line” value (Melanoma UACC-257 CL10021) was 1 and the “classification of cell line” value (NSCLC A549/ATCC CL1004) was 2. For the same compound, the “classification of cell line” value (NSCLC EKVX CL1008) was 1, the “classification of cell line” value (NSCLC HOP-62 CL1026) was 2 and the “classification of cell line” value (NSCLC HOP-92 CL1029) was 2. The “sensitivity classification Low(1)/Medium(2)/High(3)” value (NSCLC NCI-H23(I) CL1001) was 2, the “classification of cell line” value (NSCLC NCI-H226 CL1013) was 2 and the “sensitivity classification Low(1)/Medium(2)/High(3)” value (NSCLC NCI-H332M CL1017) was 1. The “sensitivity classification Low(1)/Medium(2)/High(3)” value (NSCLC NCI-H460 CL1021) was 3, the “sensitivity classification Low(1)/Medium(2)/High(3)” value (NSCLC NCI-H522 CL1003) was 2 and the “sensitivity classification Low(1)/Medium(2)/High(3)” value (Ovarian IGROV1 CL6010) was 2. The “sensitivity classification Low(1)/Medium(2)/High(3)” value (Ovarian OVCAR-3 CL6001) was 2, the “sensitivity classification Low(1)/Medium(2)/High(3)” value (Ovarian OVCAR-4 CL6002) was 1 and the “sensitivity classification Low(1)/Medium(2)/High(3)” value (Ovarian OVCAR-5 CL6003) was 2. The “sensitivity classification Low(1)/Medium(2)/High(3)” value (Ovarian OVCAR-8 CL6005) was 2, the “sensitivity classification Low(1)/Medium(2)/High(3)” value (Ovarian SK-OV-3 CL6011) was 1 and the “sensitivity classification Low(1)/Medium(2)/High(3)” value (Prostate DU-145 CL11003) was 2. For the same compound, the “sensitivity classification Low(1)/Medium(2)/High(3)” value (Prostate PC-3(I) CL11001) was 2, the “sensitivity classification Low(1)/Medium(2)/High(3)” value (Renal 786-0 CL9018) was 2 and the “sensitivity classification Low(1)/Medium(2)/High(3)” value (Renal A498 CL9013) was 2. The “sensitivity classification Low(1)/Medium(2)/High(3)” value (Renal ACHN CL9023) was 3, the “sensitivity classification Low(1)/Medium(2)/High(3)” value (Renal CAKI-1 CL9015) was 3 and the “sensitivity classification Low(1)/Medium(2)/High(3)” value (Renal RXF-393 CL9016) was 2. The “sensitivity classification Low(1)/Medium(2)/High(3)” value (Renal SN12C CL9008) was 2, the “sensitivity classification Low(1)/Medium(2)/High(3)” value (Renal TK10 CL9024) was 1 and the “sensitivity classification Low(1)/Medium(2)/High(3)” value (Renal UO-31 CL9004) was 2.
